Test results published in article PMC8027256, “Epigallocathechin-O-3-Gallate Inhibits Trypanothione Reductase of Leishmania infantum, Causing Alterations in Redox Balance and Leading to Parasite Death” (Frontiers in Cellular and Infection Microbiology, 2021).

Target: T1, trypanothione reductase (TR; LiTR) (Leishmania infantum, UniProt A4HSF7)
T1 construct: gene TRYR; Full-length LiTR with carboxy-terminal six-histidine tag (LiTR.6His), expressed in E. coli
Test: DTNB-coupled trypanothione reductase assay with purified recombinant enzyme; Lineweaver-Burk and Dixon plot analysis (IC50 […] also reported)
Type: biochemical

T1 sequence (A4HSF7 1-491): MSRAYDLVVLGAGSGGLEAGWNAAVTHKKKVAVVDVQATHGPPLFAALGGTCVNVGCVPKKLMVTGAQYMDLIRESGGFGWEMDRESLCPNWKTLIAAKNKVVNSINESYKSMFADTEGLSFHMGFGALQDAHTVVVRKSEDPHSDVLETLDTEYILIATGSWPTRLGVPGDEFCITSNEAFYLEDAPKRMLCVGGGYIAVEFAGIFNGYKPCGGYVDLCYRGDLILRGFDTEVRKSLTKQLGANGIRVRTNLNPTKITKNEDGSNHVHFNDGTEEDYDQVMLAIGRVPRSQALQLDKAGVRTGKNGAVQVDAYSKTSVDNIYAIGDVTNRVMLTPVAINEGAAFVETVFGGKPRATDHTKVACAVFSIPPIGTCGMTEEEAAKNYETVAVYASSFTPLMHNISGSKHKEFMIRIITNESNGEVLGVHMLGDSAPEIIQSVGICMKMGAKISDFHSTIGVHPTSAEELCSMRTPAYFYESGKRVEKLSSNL

With `O=C(O[C@@H]1Cc2c(O)cc(O)cc2O[C@@H]1c1cc(O)c(O)c(O)c1)c1cc(O)c(O)c(O)c1` [(-)-Epigallocatechin 3-O-gallate] the Ki was 294 ± 66.3 µM.
